Data as given in US12599560B2, “Lipids and lipid nanoparticle formulations” (Longuide Biopharma Corporation, priority 2023, dated 2026).

Key:
mice = assay: In vivo delivery of FLuc-mRNA lipid nanoparticle preparations in mice (IVIS imaging); set-up: In vivo IVIS / In vivo IVIS (liver) / In vivo IVIS (spleen): unit not given here
Description: 7. In Vivo Delivery of the Nucleic Acid Lipid Nanoparticle Preparations in Mice After the preparation was completed, the preparation was injected intramuscularly (mice rectus femoris muscle of the thigh) or intravenously (mice tail vein), with approximately 75 μL per mouse, for a total of 3 mice. After a certain time of injection, in vivo imaging (PerkinElmer, IVIS Lumina III) was performed. 10-15 minutes before imaging, 200 μL of 15 mg/mL D-Luciferin working solution was injected intraperitoneally, and the imaging analysis was performed using an in vivo imager.

[1] = Particle size and PDI by dynamic light scattering; format: physicochemical
Description: The 7.5 μL nucleic acid lipid nanoparticle solution (containing approximately 0.04 mg/mL mRNA) was taken and added with 200 μL ultrapure water, mixed by gentle blowing using a pipette tip, and the particle size of the nanopreparation was detected by dynamic lightscattering (DLS) using a Malvern Dynamic Light Scattering Instrument (Malvern Instruments Ltd., ZEN3700, UK). 27.5 μL nucleic acid lipid nanoparticle solution (containing about 0.04 mg/mL mRNA) was taken and added with 200 μL ultrapure water. A pipette tip was used to gently blow the sample and mix well. The particle size of the nanopreparation was detected by Malvern Dynamic Light Scattering Instrument (Malvern Instruments Ltd., ZEN3700, UK). After the detection, the sample was recovered to an EP tube, and 600 μL of ultrapure water was added, gently blown with a pipette tip, and the potential of the nanopreparation was measured by a Malvern particle size meter.

[2] = Table 4, molar ratio 1.40:11.15:38.95:48.50, N/P 32, IV formulation
[3] = Table 4, molar ratio 2.00:4.00:59.00:35.00, N/P 35, IM formulation
[4] = Table 2, IV, whole body scan, molar ratio DMG-PEG2000:DSPC:Chol:Lipid and N/P
[5] = Table 2, LNP formulation with mRNA
[6] = Table 4, molar ratio 1.40:11.15:38.95:48.50, N/P 28, IM formulation
[7] = Table 4, molar ratio 2.50:11.50:51.00:35.00, N/P 32, IV formulation

Row | PDI ([1]; Table 4) | Particle size (nm) ([1]; Table 4) | Structure (SMILES) | In vivo IVIS (mice; Table 4, IM) | In vivo IVIS (mice; Table 4, IV) | In vivo IVIS (mice; Table 2, IM, whole body scan) | further results
1 | 0.10 ± 0.02 | 179.07 ± 0.38 nm | CCCCCCCC/C=C\CCCCCCCCNC(=O)C(O)CN(CCCN1CCN(CCCN(CC(O)C(=O)NCCCCCCCC/C=C\CCCCCCCC)CC(O)C(=O)NCCCCCCCC/C=C\CCCCCCCC)CC1)CC(O)C(=O)NCCCCCCCC/C=C\CCCCCCCC (centres unmarked) [Compound L0229] | 5.61 × 10^6 | 2.46 × 10^8 |  | 
2 | 0.21 ± 0.01 | 177.07 ± 1.00 nm | CCCCCCCCCCCCNC(=O)C(O)CN(CC(O)C(=O)NCCCCCCCCCCCC)[C@H]1CC[C@H](N(CC(O)C(=O)NCCCCCCCCCCCC)CC(O)C(=O)NCCCCCCCCCCCC)CC1 (some centres unmarked) [Compound L0214] | 2.46 × 10^5 | 3.60 × 10^5 |  | 
3 | 0.13 ± 0.03 | 98.88 ± 1.32 nm | CCCCCCCC/C=C\CCCCCCCCNC(=O)C(O)CN1CCN(CCN(CC(O)C(=O)NCCCCCCCC/C=C\CCCCCCCC)CC(O)C(=O)NCCCCCCCC/C=C\CCCCCCCC)CC1 (centres unmarked) [Compound L0223] | 1.83 × 10^6 | 1.42 × 10^8 |  | 
4 | 0.09 ± 0.01 | 102.47 ± 0.96 nm | CCCCCCCCCCNC(=O)C(O)CN[C@H]1CC[C@H](N(CC(O)C(=O)NCCCCCCCCCC)CC(O)C(=O)NCCCCCCCCCC)CC1 (some centres unmarked) [Compound L0219] | 2.79 × 10^6 | 8.48 × 10^7 |  | 
5 | 0.11 ± 0.01 | 119.27 ± 1.75 nm | CCCCCCCCCCNC(=O)C(O)CN(Cc1ccc(CN(CC(O)C(=O)NCCCCCCCCCC)CC(O)C(=O)NCCCCCCCCCC)cc1)CC(O)C(=O)NCCCCCCCCCC (centres unmarked) [Compound L0215] | 2.45 × 10^5 | 4.06 × 10^5 |  | 

Further lines, the molecule ahead of its results:

Row | Structure (SMILES) | PDI ([1]; Table 4) | Particle size (nm) ([1]; Table 4) | In vivo IVIS (mice; Table 4, IM) | In vivo IVIS (mice; Table 4, IV) | In vivo IVIS (mice; Table 2, IM, whole body scan) | further results
6 | CCCCCCC(CCCCCC)C(=O)OCCCCCCOC(=O)C(O)CN(CCCN1CCN(CCCN(CC(O)C(=O)OCCCCCCOC(=O)C(CCCCCC)CCCCCC)CC(O)C(=O)OCCCCCCOC(=O)C(CCCCCC)CCCCCC)CC1)CC(O)C(=O)OCCCCCCOC(=O)C(CCCCCC)CCCCCC (centres unmarked) [Compound L0227] |  |  | 3.49 × 10^8 | 2.49 × 10^8 |  | PDI [1, 2]: 0.15 ± 0.01; Particle size (nm) [1, 2]: 113.50 ± 0.96 nm; PDI [1, 3]: 0.13 ± 0.01; Particle size (nm) [1, 3]: 112.03 ± 0.65 nm
7 | CCCCCCCCCCSSCCOC(=O)C(O)CN1CCN(CCN(CC(O)C(=O)OCCSSCCCCCCCCCC)CC(O)C(=O)OCCSSCCCCCCCCCC)CC1 (centres unmarked) [Compound L0185] |  |  |  |  | 2.52 × 10^7 | In vivo IVIS (mice; [4]): 2.72 × 10^6; Particle size (nm) ([1]; Table 2, LNP formulation with mRNA, molar ratio 0.95:7.58:26.47:65.00, N/P 30): 94.35 ± 0.52 nm; Particle size (nm) ([1]; Table 2, LNP formulation with mRNA, molar ratio 1.40:11.15:38.95:48.50, N/P 30): 84.46 ± 1.39 nm; PDI ([1]; Table 2, polydispersity value, molar ratio 0.95:7.58:26.47:65.00, N/P 30): 0.13 ± 0.02; PDI ([1]; Table 2, polydispersity value, molar ratio 1.40:11.15:38.95:48.50, N/P 30): 0.20 ± 0.00
8 | CCCCCCCCCCCCNC(=O)C(O)CN(CCCN1CCN(CCCN(CC(O)C(=O)NCCCCCCCCCCCC)CC(O)C(=O)NCCCCCCCCCCCC)CC1)CC(O)C(=O)NCCCCCCCCCCCC (centres unmarked) [Compound L0190] |  |  |  |  | 1.19 × 10^6 | Particle size (nm) [1, 5]: 121.87 ± 2.71 nm; PDI ([1]; Table 2, polydispersity value): 0.20 ± 0.01
9 | CCCCCCCCC(CCCCCC)C(=O)OCCCCCCOC(=O)C(O)CN1CCN(CCN(CC(O)C(=O)OCCCCCCOC(=O)C(CCCCCC)CCCCCCCC)CC(O)C(=O)OCCCCCCOC(=O)C(CCCCCC)CCCCCCCC)CC1 (centres unmarked) [Compound L0188] |  |  |  |  | 1.87 × 10^7 | In vivo IVIS (liver) (mice; Table 2, IV, liver): 4.17 × 10^7; In vivo IVIS (spleen) (mice; Table 2, IV, spleen): 4.65 × 10^7; In vivo IVIS (mice; [4]): 1.61 × 10^8; Particle size (nm) [1, 5]: 97.72 ± 1.19 nm; PDI ([1]; Table 2, polydispersity value): 0.22 ± 0.02
10 | CCCCCCCCCCCCNC(=O)C(O)CN(CCC(=O)NCCCN1CCN(CCCNC(=O)CCN(CC(O)C(=O)NCCCCCCCCCCCC)CC(O)C(=O)NCCCCCCCCCCCC)CC1)CC(O)C(=O)NCCCCCCCCCCCC (centres unmarked) [Compound L0194] |  |  |  |  | 1.08 × 10^6 | In vivo IVIS (mice; [4]): 2.14 × 10^5; Particle size (nm) [1, 5]: 109.10 ± 0.50 nm; PDI ([1]; Table 2, polydispersity value): 0.13 ± 0.00
11 | CCCCCCOC(C)OCCCCCCOC(=O)C(O)CN1CCN(CCN(CC(O)C(=O)OCCCCCCOC(C)OCCCCCC)CC(O)C(=O)OCCCCCCOC(C)OCCCCCC)CC1 (centres unmarked) [Compound L0220] | 0.08 ± 0.02 | 106.97 ± 0.21 nm | 1.32 × 10^6 | 1.82 × 10^8 |  | 
12 | CCCCCCCCCCNC(=O)C(O)CN(CC(O)C(=O)NCCCCCCCCCC)[C@H]1CC[C@@H](N(CC(O)C(=O)NCCCCCCCCCC)CC(O)C(=O)NCCCCCCCCCC)CC1 (some centres unmarked) [Compound L0216] | 0.08 ± 0.02 | 117.97 ± 1.91 nm | 3.58 × 10^5 | 2.18 × 10^5 |  | 
13 | CCCCCCC(CCCCCC)C(=O)OCCCCOC(=O)C(O)CN(CCCN1CCN(CCCN(CC(O)C(=O)OCCCCOC(=O)C(CCCCCC)CCCCCC)CC(O)C(=O)OCCCCOC(=O)C(CCCCCC)CCCCCC)CC1)CC(O)C(=O)OCCCCOC(=O)C(CCCCCC)CCCCCC (centres unmarked) [Compound L0196] |  |  |  |  | 1.82 × 10^8 | In vivo IVIS (mice; [4]): 2.00 × 10^9; in vivo delivery efficiency as compared to the benchmark compound SM102 (mice; certain formulations, Table 2): superior in vivo delivery efficiency; Particle size (nm) [1, 5]: 89.18 ± 0.22 nm; PDI ([1]; Table 2, polydispersity value): 0.11 ± 0.01
14 | CCCCCCCCCCCCNC(=O)C(O)CN(CC(O)C(=O)NCCCCCCCCCCCC)[C@H]1CC[C@@H](N(CC(O)C(=O)NCCCCCCCCCCCC)CC(O)C(=O)NCCCCCCCCCCCC)CC1 (some centres unmarked) [Compound L0213] | 0.18 ± 0.01 | 174.43 ± 1.85 nm | 2.36 × 10^5 | 3.64 × 10^5 |  | 
15 | CCCCCCCCCCNC(=O)C(O)CN(CC(O)C(=O)NCCCCCCCCCC)[C@H]1CC[C@H](N(CC(O)C(=O)NCCCCCCCCCC)CC(O)C(=O)NCCCCCCCCCC)CC1 (some centres unmarked) [Compound L0218] | 0.07 ± 0.02 | 109.43 ± 1.16 nm | 8.49 × 10^5 | 5.55 × 10^5 |  | 
16 | CCCC/C=C\CCOCOCCCCOC(=O)C(O)CN(CCCN1CCN(CCCN(CC(O)C(=O)OCCCCOCOCC/C=C\CCCC)CC(O)C(=O)OCCCCOCOCC/C=C\CCCC)CC1)CC(O)C(=O)OCCCCOCOCC/C=C\CCCC (centres unmarked) [Compound L0226] | 0.09 ± 0.03 | 115.53 ± 1.04 nm | 1.41 × 10^8 | 1.24 × 10^9 |  | 
17 | CCCCCCCCCCNC(=O)C(O)CN(CCCN1CCN(CCCN(CC(O)C(=O)NCCCCCCCCCC)CC(O)C(=O)NCCCCCCCCCC)CC1)CC(O)C(=O)NCCCCCCCCCC (centres unmarked) [Compound L0189] |  |  |  |  | 2.16 × 10^6 | In vivo IVIS (mice; [4]): 3.12 × 10^7; Particle size (nm) ([1]; Table 2, LNP formulation with mRNA, molar ratio 1.09:8.66:30.25:60.00, N/P 20): 106.80 ± 0.85 nm; Particle size (nm) ([1]; Table 2, LNP formulation with mRNA, molar ratio 1.40:11.15:38.95:48.50, N/P 10): 85.92 ± 0.69 nm; PDI ([1]; Table 2, polydispersity value, molar ratio 1.09:8.66:30.25:60.00, N/P 20): 0.06 ± 0.04; PDI ([1]; Table 2, polydispersity value, molar ratio 1.40:11.15:38.95:48.50, N/P 10): 0.07 ± 0.02
18 | CCCCCCCCCCCCNC(=O)C(O)CN1CCN(CCN(CC(O)C(=O)NCCCCCCCCCCCC)CC(O)C(=O)NCCCCCCCCCCCC)CC1 (centres unmarked) [Compound L0181] |  |  |  |  | 3.37 × 10^6 | Particle size (nm) [1, 5]: 71.39 ± 0.26 nm; PDI ([1]; Table 2, polydispersity value): 0.16 ± 0.02
19 | CCCCCCCCCCNC(=O)C(O)CN1CCN(CCN(CC(O)C(=O)NCCCCCCCCCC)CC(O)C(=O)NCCCCCCCCCC)CC1 (centres unmarked) [Compound L0180] |  |  |  |  | 1.10 × 10^7 | In vivo IVIS (mice; [4]): 3.15 × 10^6; Particle size (nm) ([1]; Table 2, LNP formulation with mRNA, molar ratio 1.09:8.66:30.25:60.00, N/P 21): 84.26 ± 0.81 nm; Particle size (nm) ([1]; Table 2, LNP formulation with mRNA, molar ratio 1.40:11.15:38.95:48.50, N/P 21): 86.34 ± 1.35 nm; PDI ([1]; Table 2, polydispersity value, molar ratio 1.09:8.66:30.25:60.00, N/P 21): 0.13 ± 0.01; PDI ([1]; Table 2, polydispersity value, molar ratio 1.40:11.15:38.95:48.50, N/P 21): 0.18 ± 0.01
20 | CCCCCCCCCCCCCCOC(=O)C(O)CN(CCCN1CCN(CCCN(CC(O)C(=O)OCCCCCCCCCCCCCC)CC(O)C(=O)OCCCCCCCCCCCCCC)CC1)CC(O)C(=O)OCCCCCCCCCCCCCC (centres unmarked) [Compound L0228] |  |  | 8.22 × 10^6 | 9.28 × 10^9 |  | PDI [1, 6]: 0.18 ± 0.01; Particle size (nm) [1, 6]: 140.50 ± 1.21 nm; PDI [1, 7]: 0.13 ± 0.01; Particle size (nm) [1, 7]: 120.07 ± 0.60 nm
21 | CCCCCCCCCCOC(=O)C(O)CN(Cc1ccc(CN(CC(O)C(=O)OCCCCCCCCCC)CC(O)C(=O)OCCCCCCCCCC)cc1)CC(O)C(=O)OCCCCCCCCCC (centres unmarked) [Compound L0211] | 0.22 ± 0.00 | 134.47 ± 2.72 nm | 1.37 × 10^5 | 1.36 × 10^5 |  | 
